Key:
[1] = biological target: T1, human topoisomerase I (Homo sapiens, UniProt P11387); assay: Topoisomerase I DNA cleavage test on radiolabelled duplex; assay type: biochemical; details: in vitro, free inhibitors
T1 construct: purchased Invitrogen Inc
T1 sequence (P11387 1-765): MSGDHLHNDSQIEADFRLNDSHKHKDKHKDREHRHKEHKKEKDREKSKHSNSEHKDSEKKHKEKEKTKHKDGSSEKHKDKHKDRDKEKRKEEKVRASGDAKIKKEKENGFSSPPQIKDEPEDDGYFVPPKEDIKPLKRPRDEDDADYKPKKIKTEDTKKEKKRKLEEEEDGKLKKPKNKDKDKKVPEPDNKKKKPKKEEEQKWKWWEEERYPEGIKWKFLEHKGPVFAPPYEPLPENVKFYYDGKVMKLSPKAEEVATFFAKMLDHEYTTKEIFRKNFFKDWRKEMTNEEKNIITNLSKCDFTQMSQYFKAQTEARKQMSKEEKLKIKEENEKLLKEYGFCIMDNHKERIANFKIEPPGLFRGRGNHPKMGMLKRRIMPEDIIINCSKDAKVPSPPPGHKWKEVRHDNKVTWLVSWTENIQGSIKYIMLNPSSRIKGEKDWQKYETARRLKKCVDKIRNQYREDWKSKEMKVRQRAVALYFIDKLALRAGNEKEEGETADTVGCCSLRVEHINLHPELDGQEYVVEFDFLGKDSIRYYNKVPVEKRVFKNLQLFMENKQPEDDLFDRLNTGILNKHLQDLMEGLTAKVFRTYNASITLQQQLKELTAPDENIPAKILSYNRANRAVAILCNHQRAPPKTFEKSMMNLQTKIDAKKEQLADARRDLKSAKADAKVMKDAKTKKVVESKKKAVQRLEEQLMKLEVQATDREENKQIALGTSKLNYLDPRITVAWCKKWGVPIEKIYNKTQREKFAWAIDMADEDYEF
Experimental: The radiolabelled 324-bp duplex in position 3′ on the oligopyrimidine strand (well 1) was incubated with topoisomerase I in the presence of three camptothecin derivatives (wells 2-4, 10CPT, 7CPT, SCPT), or of these three derivatives conjugated with TFO 16 (wells 5-7, TFO16-L4-10CPT, TFO16-L6-CPT, TFO16-L3-SCPT). The cleavage sites are indicated by letters and the binding site of the conjugate is shown diagrammatically. L3=diaminopropynyl; L4=diaminobutyl, L6=diaminohexyl; after incubation, the protein is digested by a treatment with SDS/proteinase K and the cleavage products are analysed on a denaturating gel;
The radiolabelled duplexes (50 nM) are incubated for 1 hour at 30° C., in 50 mM. […] After ethanol precipitation, all the samples are re-suspended in 6 μl of formamide, heated to 90° C. for 4 minutes and cooled again on ice for 4 mins, before being deposited on 8% and 10% denaturing polyacrylamide gel [19/1 acrylamide:bisacrylamide], for the long and short targets respectively, containing 7.5 M urea in 1× TBE buffer (50 mM Tris-HCl, 55 mM boric acid, 1 Mm EDTA), In order to quantify the cleavage intensity, the gels are scanned with a Dynamics 445SI Phosphorimager. […]
The cleavage specificity of the conjugates was measured in vitro by a standard topoisomerase I cleavage test. […]

[2] = biological target: T2, DNA/topo I cleavage complexes (Homo sapiens, UniProt P11387); assay: Formation of DNA/topo I cleavage complexes in HeLa nuclei followed by immunoblot (CsCl gradient, Western slot blot); assay type: cell-based; details: 3 h at 37° C., 5 μM (FIG. 8)
T2 construct: HeLa nucleus cells (5000000) were prepared and incubated 3 h at 37° C. with the topoisomerase I poison; endogenous in cells; host or cells: HeLa nuclei
T2 sequence (P11387 1-765): T1 sequence (P11387 1-765)
Experimental: FIG. 8 gives correlation results of the biological effects with the formation of DNA/topo I/CPT complexes: the formation of the complexes in the cells was followed by immunoblot.
In the experiments corresponding to FIG. 8, HeLa nucleus cells (5000000) were prepared and incubated 3 h at 37° C. with the topoisomerase I poison free (CPT or ST1578) or coupled to oligonucleotide (TFO-L4-10CPT or TFO-ST1578 or LNA-ST1578), or with a control oligonucleotide (TFO-NH2 or TFO-NPh2) at various concentration (in FIG. 8 at 5 μM). After adding of sarkosyl, the lysates were ultracentrifugated 16 h on a gradient of CsCl. 12 fractions were recovered and analysed by Western slot blot to show the fractions containing topoisomerase I (in 1-4 for the untreated control (mock)).
The fractions containing the DNA were identified by measuring absorbance at 260 nm (fractions 8-10).

CC[C@@]1(O)C(=O)OCc2c1cc1n(c2=O)Cc2cc3cc(C(=O)O)ccc3nc2-1 [10-carboxycamptothecin, 20S-10-carboxycamptothecin]
stimulation of DNA cleavage by topoisomerase 1 compared with 7-aminoethyl-camptothecin [1]: more effectively

CC[C@@]1(O)C(=O)OCc2c1cc1n(c2=O)Cc2cc3ccccc3nc2-1 [CPT, camptothecin]
fractions of the CsCl gradient containing topoisomerase I (stabilisation of DNA/topo I cleavage complexes) [2]: observed only in fractions containing DNA

CC[C@@]1(O)C(=O)OCc2c1cc1n(c2=O)Cc2c-1nc1ccccc1c2C=NCCN [ST1578, 20S-7-aminoethyliminomethylcamptothecin]
fractions of the CsCl gradient containing topoisomerase I (stabilisation of DNA/topo I cleavage complexes) [2]: observed only in fractions containing DNA

From patent US20080108581A1, “Compounds and Their Use for Specific and Simultaneous Inhibition of Genes Involved In Diseases and Related Drugs” (INSTITUT NATIONAL DE LA SANTE ET DE LA RECHERCHE MEDICAL …, priority 2003, published 2008)
